{"source": "patent US20060089407A1", "about": "“Methods for Making and Using Synergistic Multifunctional Compositions” (NATIONAL RESEARCH LABORATORIES, LTD., priority 2004, published 2006)", "key": {"normal cells": {"test_system": "normal cells", "details": "cited from earlier work"}, "viruses": {"test_system": "viruses", "details": "cited from earlier work"}}}
{"smiles": "CC(=O)[O-].CC(=O)[O-].[Zn+2]", "note": "[zinc acetate]", "values": [{"measurement": "toxicity to normal cells", "setting": "normal cells", "value": "quite toxic to normal cells"}, {"measurement": "anti-viral activity", "setting": "viruses", "value": "very toxic to viruses"}]}
{"smiles": "O=C([O-])CC([O-])(CC(=O)[O-])C(=O)[O-].[Cu+2].[Na+].[Na+]", "note": "[MCC, disodium monocopper (II) citrate dihydrate]", "values": [{"measurement": "anti-inflammatory performance", "setting": "inflammatory processes", "value": "demonstrated utility on relieving inflammatory processes"}]}
